Patent publication US6585963B1, “Nail compositions and methods of administering same” (Watson Pharmaceuticals, Inc., priority 2001, dated 2003)

Test: In vitro human cadaver nail flux study (modified Franz permeation cells)
Assay type: in vitro ADME
Method: The general methods for determining the in vitro nail flux are known in the art. See, for example, U.S. Pat. No. 5,696,164, and references cited therein.
In vitro human cadaver nail flux studies were conducted using modified Franz non-Jacketed permeation cells. The temperature of the nail surface was maintained at 32° C. by placing the cells in a circulating water bath positioned over a stirring module. Human fingernails or toenails were stored under frozen conditions in 0.02% (w/v) sodium azide solution or selected receiver medium. Nails that were greater than 1 cm^2 in area were used for the flux studies. Nails with dorsal side facing the donor compartment were sandwiched between two layers of a closed cell polyethylene foam film. Annular ring of 2.38 cm outer diameter and […] was cut from the backinig film. The area of the donut hole (0.97 cm^2) is large enough to provide complete contact with the receiver media. The purpose of the foam backing film was to prevent any leakage of receiver medium from the cell assembly. The nails were allowed to hydrate at 32° C. overnight with 0.02% (w/v) sodium azide solution in the receiver compartment.
The following morning, nail lacquer sufficient to cover the nail surface was placed onto the dorsal side of the nail. Alternatively, a fixed amount of the lacquer can also be used. Each nail was then loaded between the donor and receiver compartments of a diffusion cell, with the ventral side of nail facing the receiver compartment, and clamped in place. The duration of nail flux and retention study varied from 3 days to 3 weeks. At predetermined sampling intervals, the entire contents of the receiver compartment were collected for drug quantitation and the receiver compartment was filled with fresh receiver solution, taking care to eliminate any air bubbles at the skin/solution interface.
The cumulative amount of drug permeated per unit area at any time t (Qt, μg/cm^2) was determined as follows: [formula] […]

Structure (SMILES) | increase in flux rate (Examples II and III, 5% enhancer in Gantrez ES-335/FLC versus formulation without enhancer) | enhancement of nail flux of fluconazole (Example I, using 3-5% triacetin versus formulation without enhancer) | increase in flux rate of fluconazole by pretreatment (Example V, pretreatment with an N-methyl-pyrrolidone composition versus control solution)
CCCCCCCCCCCC(=O)N(CCO)CCO [L-DEA, Lauramide Diethanolamine (DEA)] | about 40% | – | –
OC(Cn1cncn1)(Cn1cncn1)c1ccc(F)cc1F [fluconazole, Fluconazole] | – | about 100% | about 70%
